The nature of data set [1]: Selectivity ratio of human ICE to caspase 4.
The next data set addresses T1, Caspase-1 (Homo sapiens, UniProt P29466).
T1 sequence (P29466 whole entry): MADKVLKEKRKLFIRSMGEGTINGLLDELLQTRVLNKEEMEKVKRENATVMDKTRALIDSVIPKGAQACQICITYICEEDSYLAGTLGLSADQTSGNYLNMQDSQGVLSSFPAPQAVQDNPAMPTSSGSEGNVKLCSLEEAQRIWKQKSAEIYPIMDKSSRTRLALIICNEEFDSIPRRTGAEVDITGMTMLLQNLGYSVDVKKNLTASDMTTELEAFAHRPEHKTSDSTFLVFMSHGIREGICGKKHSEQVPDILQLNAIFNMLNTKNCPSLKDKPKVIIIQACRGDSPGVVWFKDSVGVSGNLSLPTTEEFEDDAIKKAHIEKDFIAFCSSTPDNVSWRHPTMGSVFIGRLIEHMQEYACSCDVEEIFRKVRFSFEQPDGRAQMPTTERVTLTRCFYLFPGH
Briefly: Inhibition of human ICE.

Data set [2] is described as follows: Selectivity ratio of human ICE to caspase 3.
The nature of data set [3]: Selectivity ratio of human ICE to caspase 6.
Data set [4] can be described thus: Selectivity ratio of human ICE to caspase 8.
The species named for another data set is Homo sapiens. The experiment in a line: Half life in human plasma.

pIC50, pKi: −log10 of the molar value. A value given as a limit tells only on which side of the number the result lay.

Take `CC(C)[C@H](CC(=O)NCCn1cnc2ccccc21)C(=O)N[C@H](C=O)CC(=O)O`: the Selectivity ratio in data set [1], in data set [2], in data set [3] and in data set [4] was above 200 each time. In addition, the pIC50 against Caspase-1 was 7.47. At Caspase-1, this molecule had a pKi of 7.70.

As for `CC(C)[C@H](CC(=O)N(CCOc1ccccc1)CCC(=O)O)C(=O)N[C@H](C=O)CC(=O)O`, the Selectivity ratio in data set [1], in data set [2], in data set [3] and in data set [4] was above 200 throughout. Further, the pIC50 against Caspase-1 was 6.94. Also, the pKi at Caspase-1 is 8.03.

As for `Cc1cc2ncn(CCNC(=O)C[C@H](C(=O)N[C@H](C=O)CC(=O)O)C(C)C)c2cc1C`, the Selectivity ratio in data set [1], in data set [2], in data set [3] and in data set [4] was above 200 each time. This molecule showed a pIC50 against Caspase-1 of 7.84. In addition, on Caspase-1, the pKi was 8.55.

For the molecule `CC(C)[C@H](CC(=O)NCCn1c(-c2cccnc2)nc2ccccc21)C(=O)N[C@H](C=O)CC(=O)O`, the Selectivity ratio in data set [1], in data set [2], in data set [3] and in data set [4] was above 200 each time. At Caspase-1, the pIC50 is 7.58. The molecule further had a pKi at Caspase-1 of 8.41.

Turning to `CC(C)[C@H](CC(=O)NCCc1cc(N(C)C)nc2ccccc12)C(=O)N[C@H](C=O)CC(=O)O`, the Selectivity ratio in data set [1], in data set [2], in data set [3] and in data set [4] was above 200 each time. The same molecule gave a pIC50 against Caspase-1 of 8.44. Moreover, at Caspase-1, the pKi was 8.52.

For `CC(C)[C@H](CC(=O)NCCc1cncc2ccccc12)C(=O)N[C@H](C=O)CC(=O)O`, the Selectivity ratio in data set [1], in data set [2], in data set [3] and in data set [4] was above 200 in each case. Also, the pIC50 against Caspase-1 is 7.92. For the same molecule, on Caspase-1, the pKi was 8.37.

Consider `CC(C)[C@H](CC(=O)NCCC(=O)c1ccccc1)C(=O)N[C@H](C=O)CC(=O)O`, for which the Selectivity ratio in data set [1], in data set [2], in data set [3] and in data set [4] was above 200 each time. This molecule gave a pIC50 on Caspase-1 of 6.40. Further, the pKi on Caspase-1 is 6.93.

On to `CC(C)[C@H](CC(=O)NCCc1c[nH]c2ccc(F)cc12)C(=O)N[C@H](C=O)CC(=O)O`, for which the Selectivity ratio in data set [1], in data set [2], in data set [3] and in data set [4] was above 200 throughout. At Caspase-1, this molecule gave a pIC50 of 7.43. The pKi on Caspase-1 was 8.10.

Consider `CCC(C)O[C@H]1OC(=O)C[C@@H]1NC(=O)[C@@H](CC(=O)NCCc1cccc2ncccc12)C(C)C` (stereo partly specified), for which the Selectivity ratio in data set [1], in data set [2], in data set [3] and in data set [4] was above 200 each time. This molecule showed a half-life in the data set filed under Homo sapiens of 7.7 h.

Consider `CCO[C@H]1OC(=O)C[C@@H]1NC(=O)[C@@H](CC(=O)NCCc1cccc2ncccc12)C(C)C`, for which the Selectivity ratio in data set [1], in data set [2], in data set [3] and in data set [4] was above 200 each time. This molecule showed a half-life in the data set filed under Homo sapiens of 4.3 h.

On to `CC(C)[C@H](CC(=O)N1CCCC(Oc2ccccc2)C1)C(=O)N[C@H](C=O)CC(=O)O` (stereo partly specified), for which the Selectivity ratio in data set [1], in data set [2], in data set [3] and in data set [4] was above 200 each time. Also, at Caspase-1, the pIC50 was 6.77. The same molecule showed a pKi at Caspase-1 of 7.67.

Turning to `CC(C)[C@H](CC(=O)NCCc1cccc2ccccc12)C(=O)N[C@H](C=O)CC(=O)O`, the Selectivity ratio in data set [1], in data set [2], in data set [3] and in data set [4] was above 200 each time. Also, on Caspase-1, the pIC50 is 8.24. The pKi at Caspase-1 was 9.24.

As to `CC(C)[C@H](CC(=O)NCCNc1cccc(Cl)c1)C(=O)N[C@H](C=O)CC(=O)O`, the Selectivity ratio in data set [1], in data set [2], in data set [3] and in data set [4] was above 200 each time. On Caspase-1, this molecule showed a pIC50 of 7.95. This molecule also gave a pKi at Caspase-1 of 9.02.

On to `CC(C)[C@H](CC(=O)NCCOc1ccccc1)C(=O)N[C@H](C=O)CC(=O)O`, for which the Selectivity ratio in data set [1], in data set [2], in data set [3] and in data set [4] was above 200 in each case. At Caspase-1, this molecule gave a pIC50 of 6.27. Moreover, at Caspase-1, the pKi is 7.77.

On to `CC(C)[C@H](CC(=O)NCCc1cccc2nc(OCCN(C)C)ccc12)C(=O)N[C@H](C=O)CC(=O)O`, for which the Selectivity ratio in data set [1], in data set [2], in data set [3] and in data set [4] was above 200 in each case. Also, on Caspase-1, the pIC50 is 6.99. The same molecule showed a pKi at Caspase-1 of 7.78.

On to `COc1ccc(CCCNC(=O)C[C@H](C(=O)N[C@H](C=O)CC(=O)O)C(C)C)cc1`, for which the Selectivity ratio in data set [1], in data set [2], in data set [3] and in data set [4] was above 200 in each case. For the same molecule, the pIC50 against Caspase-1 was 6.39. This molecule had a pKi on Caspase-1 of 7.15.

Turning to `Cc1cc2nc(C)n(CCNC(=O)C[C@H](C(=O)N[C@H](C=O)CC(=O)O)C(C)C)c2cc1C`, the Selectivity ratio in data set [1], in data set [2], in data set [3] and in data set [4] was above 200 throughout. The molecule also had a pIC50 against Caspase-1 of 8.04. Also, the pKi on Caspase-1 was 8.90.

Take `CC(C)[C@H](CC(=O)NCCn1ccc2ccccc21)C(=O)N[C@H](C=O)CC(=O)O`: the Selectivity ratio in data set [1], in data set [2], in data set [3] and in data set [4] was above 200 throughout. Further, the pIC50 against Caspase-1 was 7.34. The pKi on Caspase-1 was 8.39.

Consider `CC(C)[C@H](CC(=O)N1CCN(c2ccccc2)CC1)C(=O)N[C@H](C=O)CC(=O)O`, for which the Selectivity ratio in data set [1], in data set [2], in data set [3] and in data set [4] was above 200 in each case. Further, the pIC50 against Caspase-1 is 5.11. The pKi at Caspase-1 was 5.99.

Regarding `Cc1c(CCNC(=O)C[C@H](C(=O)N[C@H](C=O)CC(=O)O)C(C)C)c2ccccc2n1C`, the Selectivity ratio in data set [1], in data set [2], in data set [3] and in data set [4] was above 200 in each case. The pIC50 at Caspase-1 was 7.37. This molecule also had a pKi at Caspase-1 of 9.05.

On to `CC(C)[C@H](CC(=O)NCCCc1ccccc1)C(=O)N[C@H](C=O)CC(=O)O`, for which the Selectivity ratio in data set [1], in data set [2], in data set [3] and in data set [4] was above 200 in each case.

Consider `CCC(C)O[C@@H]1OC(=O)C[C@@H]1NC(=O)[C@@H](CC(=O)NCCc1cccc2ncccc12)C(C)C` (stereo partly specified), for which the Selectivity ratio in data set [1], in data set [2], in data set [3] and in data set [4] was above 200 each time. The same molecule had a half-life in the data set filed under Homo sapiens of 3.9 h.

Regarding `CC(C)[C@H](CC(=O)NCCc1c[nH]c2ccccc12)C(=O)N[C@H](C=O)CC(=O)O`, the Selectivity ratio in data set [1], in data set [2], in data set [3] and in data set [4] was above 200 each time. This molecule had a pIC50 against Caspase-1 of 7.64. This molecule also had a pKi on Caspase-1 of 8.30.

With `CC(C)[C@H](CC(=O)NCCc1ccnc2ccccc12)C(=O)N[C@H](C=O)CC(=O)O`, the Selectivity ratio in data set [1], in data set [2], in data set [3] and in data set [4] was above 200 each time. At Caspase-1, this molecule had a pIC50 of 8.32. At Caspase-1, the pKi was 8.88.

Regarding `CC(C)[C@H](CC(=O)N(CCOc1ccccc1)C(C)C)C(=O)N[C@H](C=O)CC(=O)O`, the Selectivity ratio in data set [1], in data set [2], in data set [3] and in data set [4] was above 200 throughout. The pIC50 against Caspase-1 was 6.23. Further, the pKi at Caspase-1 is 7.00.

As to `CC(C)[C@H](CC(=O)NCCc1cccc2ncccc12)C(=O)N[C@H]1CC(=O)O[C@H]1OC1CCCC1`, the Selectivity ratio in data set [1], in data set [2], in data set [3] and in data set [4] was above 200 throughout. Moreover, the half-life in the data set listed under Homo sapiens is 15.7 h.

For `Cc1ccc2c(c1)ncn2CCNC(=O)C[C@H](C(=O)N[C@H](C=O)CC(=O)O)C(C)C`, the Selectivity ratio in data set [1], in data set [2], in data set [3] and in data set [4] was above 200 throughout. In addition, the pIC50 on Caspase-1 is 7.82. The molecule also showed a pKi at Caspase-1 of 8.31.

Values taken from ChEMBL document CHEMBL1221254, “Succinic acid amides as P2-P3 replacements for inhibitors of interleukin-1beta converting enzyme (ICE or caspase 1)” (Bioorg Med Chem Lett, 2010).
